Each structure is given as a SMILES string.

This series can be described thus: gradient 5% acetonitrile 3 min, to 50% in 2 min, to 85% in 15 min, held 3 min, 100 µL/min. The note with it: column: Zorbax Extend-C18 2.1 x 50 mm; eluents: water / acetonitrile, 0.1% formic acid. The gist of the method: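 The system's dead and dwell volumes were 40 μL and 900 μL, with a Zorbax Extend-C18 column (2.1 × 50 mm, 1.8 μm) run at 100 μL/min in water and acetonitrile containing 0.1% formic acid each. Pure standards were analyzed in mixtures of ~100 molecules by HPLC–quadrupole time-of-flight mass spectrometry in positive and negative ionization mode. Retention time was assigned from computationally picked, manually inspected adduct peaks.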
On to `O=C(c1ccc(C(F)(F)F)s1)N1C[C@@H]2C[C@H]1C[C@@H]2NS(=O)(=O)c1cccs1`, for which the RP-LC retention time turned out to be 813 s. `CC(C)(C)OC(=O)Cn1nc2ccc(S(=O)(=O)N3CCSCC3)cn2c1=O` came in with an RP-LC retention time of 888 s. Then `CC(=O)Nc1nsc(N2CCC(C(=O)N3CCN(c4cccc(Cl)c4)CC3)CC2)n1`, with 731 s; and `O=C(CN1C(=O)NC2(CCCCC2)C1=O)Nc1ccc2c(c1)OCCO2`, with 708 s.

With `Cc1ccc(CNC(=O)CN2CCN(C(=O)Nc3ccc(Br)cc3)CC2=O)o1`, the RP-LC retention time was determined as 748 s. With `Cc1nc2ccn(Cc3ccco3)c(=O)c2cc1C(=O)N1CCN(C)CC1`, the RP-LC retention time was 644 s. Compound `Cc1cc(Nc2ncccc2S(N)(=O)=O)ccc1F` registered an RP-LC retention time of 820 s. In the case of `COc1cccc(NC(=O)Cn2cnc3nc(N4CCC(C(=O)NC5CC5)CC4)sc3c2=O)c1`, the RP-LC retention time was determined as 658 s.

In turn, `CCc1nccn1Cc1nc(-c2ccc(OC)c(OC)c2)no1` yielded an RP-LC retention time of 618 s. Then `O=C(CN1C(=O)C(C(=O)N2CCCCCC2)Sc2ccccc21)N1CCN(c2ncccn2)CC1` (stereo not drawn), with 784 s; and `Cc1ccc(NC(=O)C2CCCN(c3ccc(=O)n(-c4cccc(Cl)c4)n3)C2)cc1C` (stereo not drawn), with 960 s. With `CCCOc1nc2ccccc2nc1N1CCCC(C(=O)N2CCN(c3ccc(OC)cc3)CC2)C1` (stereo not drawn), the RP-LC retention time turned out to be 1280 s. For `O=C(NCc1csc(-c2cccs2)n1)C1CCN(S(=O)(=O)c2ccccc2)CC1`, the RP-LC retention time turned out to be 870 s. Regarding `Cc1ccsc1C(=O)Nc1ccccc1Sc1c(C)c(C)nc2nc(-c3ccccc3)nn12`, the RP-LC retention time came to 1120 s. Then `NC(=O)C1(c2ccccc2F)CC1`, with 681 s; and `Cc1ccc(N2N=NC3C(=O)N(c4ccccc4)C(=O)C32)cc1F` (stereo not drawn), with 1010 s. `O=C(CN1c2ccc(F)cc2-c2ccccc2S1(=O)=O)NCc1cccnc1` returned an RP-LC retention time of 646 s. `O=C(Cn1cc(-c2nnco2)c2ccccc21)NCc1cccc(Br)c1`: the RP-LC retention time worked out at 774 s. Take `COc1ccc(-c2noc(CN3C(=O)C(C)Oc4ccccc43)n2)c(OC)c1` (stereo not drawn): the RP-LC retention time was found to be 956 s. For `CN(C)S(=O)(=O)c1ccc2c(c1)N(CC(=O)N1CCc3ccccc31)C(=O)C1CCCCN21` (stereo not drawn) the value was 960 s; for `CC[C@H](C)NC(=O)Cc1nnc(-c2ccc(OC)cc2)o1`, 707 s. For `CCC(=O)NCC12CCCC=C1NC(=O)CC2` (stereo not drawn) the value was 597 s. On to `Cc1ccc(CNC(=O)Cn2nc(C)c3nn(-c4ccc(Cl)cc4)c(-n4cccc4)c3c2=O)o1`, for which the RP-LC retention time was determined as 1040 s. In the case of `Cc1cc(C)cc(C(=O)NCc2ccc3c(c2)CCCN3C(=O)C2CCC2)c1`, the RP-LC retention time is 981 s. Consider `CC(C)c1ccc2c(c1)-c1ccccc1S(=O)(=O)N2CC(=O)NCc1ccccn1`, for which the RP-LC retention time is 757 s.

Turning to `O=C(CN1C(=O)CCC1=O)N1CCC(Oc2nc3ccc(F)cc3s2)CC1`, the RP-LC retention time stood at 734 s. The compound `O=C(CCC1CCN(S(=O)(=O)c2ccccc2)CC1)NCc1ccco1` gave an RP-LC retention time of 776 s. For `O=C(NCc1nc(-c2cccc(-c3ccn[nH]3)c2)no1)c1ccccc1` the value was 741 s. For `Cc1cc(C)cc(NC(=O)CSc2nccc(N3CCN(c4cc(C)ccc4C)CC3)n2)c1` the value was 989 s; for `CCOc1ccc(N2C(=O)C3N=NN(Cc4nc(-c5ccc(C)c(C)c5)no4)C3C2=O)cc1` (stereo not drawn), 1110 s; for `CCCn1cc(C2=CCN(C(=O)NCc3ccc(C)cc3)CC2)c2cccnc21`, 939 s. Then `CCOc1ccc(NS(=O)(=O)c2cc3c4c(c2)CCC(=O)N4CCC3)cc1`, with 818 s. Compound `CCn1cnc2ccc(-c3noc(C(C)NC(=O)c4ccccc4)n3)cc21` (stereo not drawn) yielded an RP-LC retention time of 636 s. For `CCCCCOC(=O)CSc1nnc(-c2ccc(Cl)cc2Cl)o1` the value was 1320 s. Then `CC(=O)N1CCc2sc(S(=O)(=O)N3CCN(c4ccccc4F)CC3)cc2C1`, with 905 s; and `COc1ccccc1-c1nnc(NC(=O)c2c[nH]c3ccccc23)o1`, with 678 s. For `CCC1CN(C(=O)N2CCC(C(=O)NCCCN3CCOCC3)CC2)c2ccccc2O1` (stereo not drawn) the value was 632 s; for `CCOc1ccc(C(=O)N2CCN(c3cc(-c4cccs4)[nH]n3)CC2)cc1`, 812 s; for `CCOC(=O)C1CCN(C(=O)Cn2c(=O)c3cccn3c3ccc(F)cc32)CC1`, 802 s. `COc1ccc(-n2c(=O)n(C)c(=O)c3cc(C(=O)Nc4cccc(OC)c4)cnc32)cc1`: the RP-LC retention time came out at 1020 s. Then `CC(C)c1ccc(NC(=O)C2CC(=O)N(CCc3c[nH]c4ccc(Cl)cc34)C2)cc1` (stereo not drawn), with 983 s; and `O=C(Cn1cnc2nc3c(cc2c1=O)CCCC3)Nc1ccccc1Cl`, with 720 s; and `CC(C)c1noc(C2(NC(=O)c3ccc(C(F)(F)F)cc3)CCCCC2)n1`, with 1130 s. Then `Cn1nc(-c2nc(C3CC3)no2)c2c1CCN(C(=O)c1ccccc1Br)C2`, with 821 s. Compound `O=C(NC1CCc2nnc(C3CC3)n2CC1)c1cnco1` (stereo not drawn) displayed an RP-LC retention time of 537 s. For `O=C(CN1CCN(C(=O)Nc2ccc(F)cc2)CC1=O)N1CCCC1` the value was 615 s.

`Cc1cc(C)cc(NC(=O)C2CCN(S(=O)(=O)c3cc(C(=O)N4CCCC4)n(C)c3)CC2)c1`: the RP-LC retention time was determined as 843 s.

For `COc1ccc(-c2nc(-c3cn(Cc4ccc(C)cc4)nn3)no2)cc1OC`, the RP-LC retention time stood at 961 s.

`O=c1c(=O)n(-c2ccc(Br)cc2)ccn1Cc1ccncc1` had an RP-LC retention time of 554 s. Then `COc1ccc(S(=O)(=O)N2CCCC(C(=O)N(C)Cc3ccccc3)C2)cc1OC` (stereo not drawn), with 859 s. In turn, `O=C(NCC1CCOCC1)Nc1cc(F)c(F)c(F)c1` gave an RP-LC retention time of 755 s. In turn, `O=C(C1CCN(c2nc3ccc(-c4ccccc4)nc3s2)CC1)N1CCCC1` displayed an RP-LC retention time of 910 s.

In turn, `O=C(O)c1ccc(Nc2ncc3c(n2)-c2ccc(Cl)cc2C(c2c(F)cccc2F)=NC3)cc1` had an RP-LC retention time of 947 s.

Take `COc1ccc(-c2nnc(-c3ccccc3)o2)cc1S(=O)(=O)N1CCCCC1`: the RP-LC retention time stood at 1020 s. As for `CCCCCNC(=O)C1CCCN(c2ncc(-c3ccccc3)cn2)C1` (stereo not drawn), the RP-LC retention time came to 1090 s.

`COc1cccc(CNS(=O)(=O)c2cc(-c3cc(C(F)(F)F)on3)sc2C)c1` gave an RP-LC retention time of 1120 s. Then `COc1cccc(-c2nc(Cn3ccnc3)no2)c1`, with 601 s. `Cc1ccc(-c2noc(Cc3nnc(-c4cccc(Cl)c4)o3)n2)cc1C` returned an RP-LC retention time of 1210 s.

For the compound `O=C(NCC1CCCCC1)C1CCCN(c2nccn3nc(-c4ccccc4Cl)cc23)C1` (stereo not drawn), the RP-LC retention time stood at 1040 s.

In the case of `Cc1ccc(N(C)C(=O)Cn2ccc3c(=O)n(C)c(=O)n(C)c32)cc1C`, the RP-LC retention time came to 693 s.

For `Cc1ccc(-n2c(SCc3nc(-c4ccc(F)cc4)no3)nc3cc4c(cc3c2=O)OCO4)cc1`, the RP-LC retention time worked out at 1220 s. Consider `COc1cc(NC(=O)c2ccccc2)c(OC)cc1NC(=O)C=C(C)C`, for which the RP-LC retention time was found to be 887 s.

With `Cn1ncc(N2CCCC(CC(=O)O)C2)cc1=O` (stereo not drawn), the RP-LC retention time stood at 613 s. Then `CC(C)Cn1c(=O)c(C(=O)NCc2ccc(C(F)(F)F)cc2)nc2cccnc21`, with 1050 s; and `COc1ccc(-c2csc3c(=O)n(Cc4ccc(F)cc4)cnc23)cc1OC`, with 951 s. For `Cc1cc([N+](=O)[O-])ccc1NC(=O)C(=O)NCc1cccs1` the value was 864 s. For `Cc1cc(C)n(CC(=O)N(C)C2CCc3nn(CC4CC4)c(=O)n3CC2)n1` (stereo not drawn) the value was 630 s. On to `COc1cc(-c2noc(-c3cn(C)c4ccc(C)cc4c3=O)n2)cc(OC)c1OC`, for which the RP-LC retention time was found to be 827 s. `O=C1C2CCCN2C(=O)c2ccccc2N1Cc1ccccc1` (stereo not drawn): the RP-LC retention time was determined as 744 s.

`Cc1cc(=O)n(CC(=O)Nc2ccccc2)c(N2CCc3ccccc3C2)n1` gave an RP-LC retention time of 765 s.

Take `CCc1nc(N)n(CC(=O)Nc2cc(C)ccc2C)c(=O)c1C`: the RP-LC retention time came out at 643 s.

With `CCOC(=O)N1CCN(S(=O)(=O)c2ccc(C(=O)Nc3cc(C)no3)cc2)CC1`, the RP-LC retention time came to 736 s.

`CC(C)c1ccc(N2C(=O)C3N=NN(Cc4nc(-c5cccc(Br)c5)no4)C3C2=O)cc1` (stereo not drawn) registered an RP-LC retention time of 1170 s. For `Fc1ccc(-c2nnc(Cc3nc(-c4cccc(F)c4)no3)o2)cc1` the value was 990 s.

For `O=C(Cn1ncc2c(c1=O)N(C1CC1)C(=O)CS2)NC1CCCCC1`, the RP-LC retention time is 672 s. The compound `Cc1ccc(-n2c(CN3CCN(C(=O)Nc4ccc5c(c4)OCCO5)CC3)nc3cccnc32)cc1` registered an RP-LC retention time of 676 s. Regarding `COC(=O)c1ccc2c(=O)n(-c3ccc(OC)cc3)c(N3CCOCC3)nc2c1`, the RP-LC retention time is 896 s. `Cc1ccc(-c2cc3c4nnc(SCC(=O)Nc5ccccc5C(F)(F)F)n4ccn3n2)cc1C` showed an RP-LC retention time of 1020 s.
